Experiments:
Assay type in all cases: cell-based
[1] = target: human α1G T-type channels (Homo sapiens, UniProt O43497); test: T-type calcium channel block, whole cell patch clamp, α1G; conditions: HEK cells stably expressing human α1G; mainly non-inactivated protocol; values above 10,000 nM represented as 10000
In short: (§1)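 Blockade of T-type current was measured in human α1G- or α1H-expressing HEK 293 cells using whole-cell recording with ~5 MΩ pipettes. Test compounds, dissolved in external solution containing 0.1-0.01% DMSO, were applied close to the cell, and block was examined under both non-inactivating and inactivating voltage protocols.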

[2] = target: N-type calcium channel subunits (α1B, α2δ, and β3a) (Homo sapiens, UniProt Q00975); test: Block of Cav2.2 channel, whole cell voltage clamp, manual and PatchXpress; conditions: Table 5; table follows Assay Example 3 (whole cell voltage clamp / PatchXpress); assay not given
In short: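 Percent block taken as current amplitude ratio with versus without compound, applied in rising doses; IC50 fitted where one cell received multiple doses. Protocol: 50 ms pulses to +20 mV at 0.067 Hz from […] or −90 mV holding; P/n leak subtraction, no junction-potential correction; manual and PatchXpress recordings.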

[3] = target: human α1H T-type channels (Homo sapiens, UniProt O95180); test: T-type calcium channel block, whole cell patch clamp, α1H; conditions: HEK cells stably expressing human α1H; mainly non-inactivated protocol; values above 10,000 nM represented as 10000
In short: as §1

Chain of N-type calcium channel subunits (α1B, α2δ, and β3a) (Q00975 whole entry): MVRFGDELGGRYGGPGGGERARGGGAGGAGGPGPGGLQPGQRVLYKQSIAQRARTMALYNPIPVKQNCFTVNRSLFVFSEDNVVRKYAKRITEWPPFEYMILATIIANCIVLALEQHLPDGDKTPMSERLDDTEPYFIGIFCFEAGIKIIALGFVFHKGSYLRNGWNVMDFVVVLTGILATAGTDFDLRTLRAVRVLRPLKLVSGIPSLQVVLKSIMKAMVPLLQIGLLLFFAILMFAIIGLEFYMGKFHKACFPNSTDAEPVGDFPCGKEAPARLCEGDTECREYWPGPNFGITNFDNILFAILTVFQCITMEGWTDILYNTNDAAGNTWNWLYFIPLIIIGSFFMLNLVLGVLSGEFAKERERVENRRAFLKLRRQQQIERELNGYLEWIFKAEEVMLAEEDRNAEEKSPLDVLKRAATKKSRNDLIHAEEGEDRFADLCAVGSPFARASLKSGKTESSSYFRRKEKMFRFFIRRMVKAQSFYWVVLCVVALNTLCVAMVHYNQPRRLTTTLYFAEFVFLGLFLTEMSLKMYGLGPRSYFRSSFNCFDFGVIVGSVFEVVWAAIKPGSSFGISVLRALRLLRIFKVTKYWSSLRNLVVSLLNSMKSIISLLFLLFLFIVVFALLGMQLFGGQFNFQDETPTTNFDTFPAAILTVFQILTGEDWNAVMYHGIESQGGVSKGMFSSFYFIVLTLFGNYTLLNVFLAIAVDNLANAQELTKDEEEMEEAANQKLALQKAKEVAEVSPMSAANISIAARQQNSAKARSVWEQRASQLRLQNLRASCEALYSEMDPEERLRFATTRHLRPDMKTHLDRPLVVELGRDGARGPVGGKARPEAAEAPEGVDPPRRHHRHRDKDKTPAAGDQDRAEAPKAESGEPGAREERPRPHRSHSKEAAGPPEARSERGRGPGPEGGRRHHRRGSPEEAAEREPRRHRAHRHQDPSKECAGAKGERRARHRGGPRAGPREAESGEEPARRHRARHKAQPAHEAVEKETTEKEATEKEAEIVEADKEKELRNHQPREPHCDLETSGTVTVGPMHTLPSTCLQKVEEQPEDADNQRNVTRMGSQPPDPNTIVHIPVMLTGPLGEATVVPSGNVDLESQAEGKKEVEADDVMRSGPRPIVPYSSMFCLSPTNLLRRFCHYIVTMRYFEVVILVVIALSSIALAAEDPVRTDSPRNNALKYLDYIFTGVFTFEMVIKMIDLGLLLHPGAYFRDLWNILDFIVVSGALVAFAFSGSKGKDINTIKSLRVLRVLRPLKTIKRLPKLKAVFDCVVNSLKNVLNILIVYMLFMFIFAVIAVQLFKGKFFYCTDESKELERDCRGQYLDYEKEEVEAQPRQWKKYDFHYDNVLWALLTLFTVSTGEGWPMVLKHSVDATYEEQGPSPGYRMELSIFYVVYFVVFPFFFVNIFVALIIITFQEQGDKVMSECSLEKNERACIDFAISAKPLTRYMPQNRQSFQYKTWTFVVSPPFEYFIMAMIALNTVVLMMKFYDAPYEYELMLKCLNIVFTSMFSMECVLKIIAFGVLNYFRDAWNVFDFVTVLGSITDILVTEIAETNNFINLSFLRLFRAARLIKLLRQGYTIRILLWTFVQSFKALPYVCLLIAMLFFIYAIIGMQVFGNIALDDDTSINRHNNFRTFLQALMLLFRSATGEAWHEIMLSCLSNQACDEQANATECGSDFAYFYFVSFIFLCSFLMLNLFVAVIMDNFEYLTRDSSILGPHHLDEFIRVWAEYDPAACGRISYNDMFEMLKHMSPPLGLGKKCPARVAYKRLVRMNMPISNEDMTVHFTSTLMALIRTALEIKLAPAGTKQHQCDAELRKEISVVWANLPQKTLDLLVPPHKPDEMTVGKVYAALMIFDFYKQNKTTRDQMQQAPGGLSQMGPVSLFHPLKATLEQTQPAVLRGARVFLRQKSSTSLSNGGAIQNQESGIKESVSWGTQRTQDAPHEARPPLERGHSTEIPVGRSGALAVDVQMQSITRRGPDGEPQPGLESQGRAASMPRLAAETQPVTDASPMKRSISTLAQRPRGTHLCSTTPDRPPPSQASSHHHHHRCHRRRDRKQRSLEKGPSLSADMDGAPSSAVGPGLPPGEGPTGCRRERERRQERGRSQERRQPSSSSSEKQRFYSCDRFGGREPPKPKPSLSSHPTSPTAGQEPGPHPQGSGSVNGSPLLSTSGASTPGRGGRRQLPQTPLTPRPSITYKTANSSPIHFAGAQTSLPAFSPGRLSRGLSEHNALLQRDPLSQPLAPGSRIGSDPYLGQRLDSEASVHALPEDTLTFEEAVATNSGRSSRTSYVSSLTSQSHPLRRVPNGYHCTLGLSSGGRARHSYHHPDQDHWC
Chain of N-type calcium channel subunits (α1B, α2δ, and β3a) (P54289 25-1103 partner): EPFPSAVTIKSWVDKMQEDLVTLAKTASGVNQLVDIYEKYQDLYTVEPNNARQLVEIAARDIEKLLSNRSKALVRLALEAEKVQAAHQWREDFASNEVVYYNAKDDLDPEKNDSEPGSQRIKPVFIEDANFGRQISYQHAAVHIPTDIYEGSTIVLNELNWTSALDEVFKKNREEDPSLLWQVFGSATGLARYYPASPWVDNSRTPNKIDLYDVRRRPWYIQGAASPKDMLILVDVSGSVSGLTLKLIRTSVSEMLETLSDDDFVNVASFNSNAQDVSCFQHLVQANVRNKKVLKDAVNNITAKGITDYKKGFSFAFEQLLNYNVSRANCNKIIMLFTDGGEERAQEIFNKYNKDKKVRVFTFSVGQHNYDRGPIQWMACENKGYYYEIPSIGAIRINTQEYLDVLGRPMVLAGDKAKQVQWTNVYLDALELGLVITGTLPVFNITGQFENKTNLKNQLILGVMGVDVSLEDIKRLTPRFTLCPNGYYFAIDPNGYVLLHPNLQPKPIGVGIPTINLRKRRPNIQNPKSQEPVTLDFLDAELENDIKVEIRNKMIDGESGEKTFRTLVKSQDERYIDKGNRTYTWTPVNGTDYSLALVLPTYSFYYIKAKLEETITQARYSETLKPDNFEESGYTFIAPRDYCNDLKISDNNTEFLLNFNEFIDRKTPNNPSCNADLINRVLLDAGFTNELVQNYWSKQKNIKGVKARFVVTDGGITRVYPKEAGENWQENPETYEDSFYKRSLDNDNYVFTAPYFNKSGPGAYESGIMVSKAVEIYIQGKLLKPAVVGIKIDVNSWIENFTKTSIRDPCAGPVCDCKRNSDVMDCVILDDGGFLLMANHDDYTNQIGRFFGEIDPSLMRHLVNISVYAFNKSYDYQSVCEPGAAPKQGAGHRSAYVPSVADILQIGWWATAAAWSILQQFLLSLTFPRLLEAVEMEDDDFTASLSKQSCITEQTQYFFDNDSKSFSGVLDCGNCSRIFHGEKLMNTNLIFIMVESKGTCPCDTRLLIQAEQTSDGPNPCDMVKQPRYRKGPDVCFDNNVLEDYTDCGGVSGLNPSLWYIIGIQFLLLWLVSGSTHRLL
Chain of N-type calcium channel subunits (α1B, α2δ, and β3a) (P54284 whole entry partner): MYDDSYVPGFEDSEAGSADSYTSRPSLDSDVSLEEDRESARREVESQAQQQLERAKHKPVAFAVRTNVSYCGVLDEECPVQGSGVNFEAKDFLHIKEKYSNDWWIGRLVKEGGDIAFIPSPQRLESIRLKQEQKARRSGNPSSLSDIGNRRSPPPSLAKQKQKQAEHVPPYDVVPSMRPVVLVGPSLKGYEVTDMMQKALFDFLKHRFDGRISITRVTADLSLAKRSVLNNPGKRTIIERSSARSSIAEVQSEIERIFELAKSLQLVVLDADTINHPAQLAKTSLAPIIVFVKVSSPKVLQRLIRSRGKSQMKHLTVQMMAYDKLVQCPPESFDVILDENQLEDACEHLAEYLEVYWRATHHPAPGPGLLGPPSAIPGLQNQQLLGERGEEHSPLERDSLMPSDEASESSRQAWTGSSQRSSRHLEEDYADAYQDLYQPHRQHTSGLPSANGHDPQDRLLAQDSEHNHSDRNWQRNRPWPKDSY

| Molecule | IC50 [1] [nM] | IC50 [2] [nM] | IC50 [3] [nM] |
| --- | --- | --- | --- |
| O=C(NC[C@H]1C[C@H](S(=O)(=O)c2cc(F)cc(C(F)(F)F)c2)C1)c1ccc(F)c(C(F)(F)F)c1 [Compound 389, 4-fluoro-N-(((1R,3R)-3-(3-fluoro-5-(trifluoromethyl)phenylsulfonyl)cyclobutyl)methyl)-3-(trifluoromethyl) benzamide] | 6080 | 270 | 8980 |
| 2-(4,4-difluoropiperidin-1-yl)-N- ((1R,4R)-4-((3- (trifluoromethyl)phenylsulfonyl) methyl)cyclohexyl)acetamide [Compound 166] | > 10000 | 750 | 8470 |
| O=C(N[C@H]1CC[C@@H](S(=O)(=O)c2cccc(C(F)(F)F)c2)CC1)c1ccc(Cl)c(C(F)(F)F)c1 [Compound 132, 4-chloro-3-(trifluoromethyl)-N-((1S,4S)-4-(3-(trifluoromethyl)phenylsulfonyl)cyclohexyl)benzamide] | 3670 | 1720 | 4550 |
| CC(C)(C)S(=O)(=O)c1ccsc1C(=O)N[C@H]1CC[C@@H](S(=O)(=O)c2cccc(C(F)(F)F)c2)CC1 [Compound 204, 3-(tert-butylsulfonyl)-N-((1S,4S)-4-(3-(trifluoromethyl)phenylsulfonyl)cyclohexyl)thiophene-2-carboxamide] | 3550 | 210 | 6460 |
| O=C(Nc1ccc(C(F)(F)F)cn1)[C@H]1C[C@H](S(=O)(=O)c2cccc(C(F)(F)F)c2)C1 [Compound 415, (1R,3R)-3-(3-(trifluoromethyl)phenylsulfonyl)-N-(5-(trifluoromethyl)pyridin-2-yl)cyclobutanecarboxamide] | > 10000 | 1760 | > 10000 |
| CC1(C(=O)N[C@H]2CC[C@@](F)(S(=O)(=O)c3cccc(C(F)(F)F)c3)CC2)CC1 [Compound 303, N-((1S,4S)-4-fluoro-4-(3-(tritluoromethyl)phenylsulfonyl)cyclohexyl)-1-methylcyclopropane carboxamide] | 4340 | 180 | 4150 |
| CC1(NC(=O)c2ccc(F)c(C(F)(F)F)c2)CCC(S(=O)(=O)c2cccc(C(F)(F)F)c2)CC1 (stereo not drawn) [Compound 309, 4-fluoro-N-(1-methyl-4-(3-(trifluoromethyl)phenylsulfonyl)cyclohexyl)-3-(trifluoromethyl)benzamide] | 9900 | 1390 | > 10000 |
| O=C(N[C@H]1CC[C@@](F)(S(=O)(=O)c2cccc(OC(F)(F)F)c2)CC1)c1cc(F)cc(Cl)c1 [Compound 251] | 3590 | 150 | 570 |
| COc1cc(C(=O)NC2(C)CCC(S(=O)(=O)c3cccc(C(F)(F)F)c3)CC2)cc(Cl)n1 (stereo not drawn) [Compound 313, 2-chloro-6-methoxy-N-(1-methyl-4-(3-(trifluoromethyl)phenylsulfonyl)cyclohexyl) isonicotinamide] | > 10000 | 1980 | > 10000 |
| Cn1nc(C(F)(F)F)cc1C(=O)N[C@H]1C[C@H](CS(=O)(=O)c2cccc(C(F)(F)F)c2)C1 [Compound 350, 1-methyl-3-(trifluoromethyl)-N-((1R,3R)-3-((3-(trifluoromethyl)phenylsulfonyl)methyl)cyclobutyl)-1H-pyrazole-5-carboxamide] | > 10000 | 1410 | > 10000 |
| CC(C)S(=O)(=O)c1cc(C(F)(F)F)cnc1C(=O)N[C@H]1CC[C@H](S(=O)(=O)c2cccc(C(F)(F)F)c2)CC1 [Compound 340, 3-(isopropylsulfonyl)-5-(trifluoromethyl)-N-((1R,4R)-4-(3-(trifluoromethyl)phenylsulfonyl)cyclohexyl) picolinamide] | 9870 | 2010 | 3170 |
| COc1cc(F)cc(C(=O)NC2(C)CCC(F)(S(=O)(=O)c3cccc(C(F)(F)F)c3)CC2)c1 (stereo not drawn) [Compound 94, 3-fluoro-N-(4-fluoro-1-methyl-4-(3-(trifluoromethyl)phenylsulfonyl)cyclohexyl)-5-methoxybenzamide] | > 10000 | 230 | > 10000 |
| CC1(S(=O)(=O)c2cccc(C(F)(F)F)c2)CCC(NC(=O)c2cc(F)cc(Cl)c2)CC1 (stereo not drawn) [Compound 19, 3-chloro-5-fluoro-N-(4-methyl-4-(3-(trifluoromethyl)phenylsulfonyl)cyclohexyl)benzamide] | 5240 | 60 | 3020 |
| O=C(N[C@H]1C[C@H](S(=O)(=O)c2cccc(C(F)(F)F)c2)C1)c1ccc(Cl)c(F)c1 [Compound 429, 4-chloro-3-fluoro-N-((1S,3S)-3-(3-(trifluoromethyl)phenylsulfonyl)cyclobutyl)benzamide] | > 10000 | 770 | 8370 |
| 4-fluoro-N-(4-methyl-4-(3- (trifluoromethyl)phenylsulfonyl) cyclohexyl)-3-(trifluoromethyl) benzamide [Compound 4] | 8540 | 140 | 6740 |

Now those with a lower IC50 [1], led by results:

| IC50 [1] [nM] | IC50 [2] [nM] | IC50 [3] [nM] | Molecule |
| --- | --- | --- | --- |
| 2910 | 900 | 2970 | O=C(N[C@H]1CC[C@H](S(=O)(=O)c2cccc(C(F)(F)F)c2)CC1)c1ccc(Cl)c(C(F)(F)F)c1 [Compound 125, 4-chloro-3-(trifluoromethyl)-N-((1R,4R)-4-(3-(trifluoromethyl)phenylsulfonyl)cyclohexyl)benzamide] |
| 2540 | 210 | 3580 | O=C(N[C@H]1CC[C@@](F)(S(=O)(=O)c2cccc(C(F)(F)F)c2)CC1)c1ccc(Cl)cc1Cl [Compound 270, 2,4-dichloro-N-((1S,4S)-4-fluoro-4-(3-(trifluoromethyl)phenylsulfonyl)cyclohexyl) benzamide] |
| 2300 | 1080 | 3650 | CS(=O)(=O)c1nc(C(F)(F)F)ccc1C(=O)N[C@H]1CC[C@@](F)(S(=O)(=O)c2cccc(C(F)(F)F)c2)CC1 [Compound 260] |
| 2230 | 2510 | 1360 | CS(=O)(=O)c1ccc(C(=O)N[C@H]2CC[C@@](F)(S(=O)(=O)c3cccc(C(F)(F)F)c3)CC2)c(Cl)c1 [Compound 263, 2-chloro-N-((1S,4S)-4-fluoro-4-(3-(trifluoromethyl)phenylsulfonyl)cyclohexyl)-4-(methylsulfonyl)benzamide] |
| 2190 | 510 | 2020 | CC(C)S(=O)(=O)c1cc(C(F)(F)F)cnc1C(=O)N[C@H]1CC[C@H](CS(=O)(=O)c2cccc(C(F)(F)F)c2)CC1 [Compound 341, 3-(isopropylsulfonyl)-5-(trifluoromethyl)-N-((1R,4R)-4-((3-(trifluoromethyl)phenylsulfonyl)methyl)cyclohexyl)picolinamide] |
| 2180 | 1940 | > 10000 | Cn1cc(C(=O)N[C@H]2CC[C@H](CS(=O)(=O)c3cccc(C(F)(F)F)c3)CC2)c(C(F)(F)F)n1 [Compound 106, 1-methyl-3-(trifluoromethyl)-N-((1R,4R)-4-((3-(trifluoromethyl)phenylsulfonyl)methyl)cyclohexyl)-1H-pyrazole-4-carboxamide] |
| 2010 | 150 | 3320 | O=C(N[C@H]1CC[C@@](F)(S(=O)(=O)c2cccc(OC(F)(F)F)c2)CC1)c1ccc(F)c(Cl)c1 [Compound 256, 3-chloro-4-fluoro-N-((1S,4S)-4-fluoro-4-(3-(trifluoromethoxy)phenylsulfonyl)cyclohexyl)benzamide] |
| 1380 | 950 | 1170 | CC1(S(=O)(=O)c2cccc(C(F)(F)F)c2)CCC(NC(=O)c2cnc(C(F)(F)F)nc2)CC1 (stereo not drawn) [Compound 2, N-(4-methyl-4-(3-(trifluoromethyl)phenylsulfonyl)cyclohexyl)-2-(trifluoromethyl) pyrimidine-5-carboxamide] |
| 1320 | 2210 | 330 | O=C(NC1CCC(S(=O)(=O)c2cccc(C(F)(F)F)c2)CC1)c1ccn(CC(F)(F)F)n1 (stereo not drawn) [Compound 14, 1-(2,2,2-trifluoroethyl)-N-(4-(3-(trifluoromethyl)phenylsulfonyl)cyclohexyl)-1H-pyrazole-3-carboxamide] |
| 1180 | 420 | 570 | O=C1c2ccc(C(F)(F)F)nc2CN1[C@H]1CC[C@@](F)(S(=O)(=O)c2cccc(C(F)(F)F)c2)CC1 [Compound 290, 6-((1S,4S)-4-f1uoro-4-(3-(trifluoromethyl)phenylsulfonyl)cyclohexyl)-2-(trifluoromethyl)-6,dihydro-5Hpyrrolo[3,4-b]pyridin-5-one] |
| 1140 | 2690 | 860 | CC1(NC(=O)c2ncc(C(F)(F)F)cc2S(C)(=O)=O)CCC(S(=O)(=O)c2cccc(C(F)(F)F)c2)CC1 (stereo not drawn) [Compound 317, N-(1-methyl-4-(3-(trifluoromethyl)phenylsulfonyl)cyclohexyl)-3-(methylsulfonyl)-5-(trifluoromethyl)picolinamide] |
| 520 | 1400 | 210 | CS(=O)(=O)c1cc(C(F)(F)F)cnc1C(=O)NC[C@H]1C[C@H](S(=O)(=O)c2cccc(C(F)(F)F)c2)C1 [Compound 364, 3-(methylsulfonyl)-5-(trifluoromethyl)-N-(((1R,3R)-3-(3-(trifluoromethyl)phenylsulfonyl)cyclobutyl)methyl)picolinamide] |

— patent publication US20120245137A1 (Zalicus Pharmaceuticals Ltd., priority 2009, published 2012)
